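The compound was tested at five concentrations on cells cultured in 96-well plates, with a 48-hour exposure period. GI50: concentration for 50% inhibition of growth. TGI: total growth inhibition.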
Legend:
Assay in all cases: DTP human tumour cell line panel, 48 h
HCC-2998 colon = tested on: HCC-2998 colon
MDA-MB-231 breast = tested on: MDA-MB-231 breast
COLO 205 colon = tested on: COLO 205 colon
CCRF-CEM leukemia = tested on: CCRF-CEM leukemia
TK-10 renal = tested on: TK-10 renal
NCI-H226 lung = tested on: NCI-H226 lung
HOP-62 NSCLC = tested on: HOP-62 NSCLC
SF-268 CNS = tested on: SF-268 CNS
A549 NSCLC = tested on: A549 NSCLC
U251 CNS = tested on: U251 CNS
SNB-19 CNS = tested on: SNB-19 CNS
EKVX NSCLC = tested on: EKVX NSCLC
HCT-116 colon = tested on: HCT-116 colon
UACC-257 melanoma = tested on: UACC-257 melanoma
ACHN renal = tested on: ACHN renal
NCI-H23 lung = tested on: NCI-H23 lung
M14 melanoma = tested on: M14 melanoma
786-0 renal = tested on: 786-0 renal
SF-539 CNS = tested on: SF-539 CNS
SW-620 colon = tested on: SW-620 colon
HT29 colon = tested on: HT29 colon
SR leukemia = tested on: SR leukemia
MALME-3M melanoma = tested on: MALME-3M melanoma
OVCAR-3 ovarian = tested on: OVCAR-3 ovarian
NCI-H522 lung = tested on: NCI-H522 lung
IGROV1 ovarian = tested on: IGROV1 ovarian
RXF 393 renal = tested on: RXF 393 renal
MCF7 breast = tested on: MCF7 breast
UO-31 renal = tested on: UO-31 renal
MOLT-4 leukemia = tested on: MOLT-4 leukemia
PC-3 prostate = tested on: PC-3 prostate
BT-549 breast = tested on: BT-549 breast
UACC-62 melanoma = tested on: UACC-62 melanoma
RPMI-8226 leukemia = tested on: RPMI-8226 leukemia
K-562 leukemia = tested on: K-562 leukemia
OVCAR-8 ovarian = tested on: OVCAR-8 ovarian
OVCAR-4 ovarian = tested on: OVCAR-4 ovarian
KM12 colon = tested on: KM12 colon
LOX IMVI melanoma = tested on: LOX IMVI melanoma
HL-60(TB) leukemia = tested on: HL-60(TB) leukemia
CAKI-1 renal = tested on: CAKI-1 renal
NCI/ADR-RES ovarian = tested on: NCI/ADR-RES ovarian
SNB-75 CNS = tested on: SNB-75 CNS
A498 renal = tested on: A498 renal
HOP-92 NSCLC = tested on: HOP-92 NSCLC
SK-MEL-28 melanoma = tested on: SK-MEL-28 melanoma
SK-MEL-5 melanoma = tested on: SK-MEL-5 melanoma
HCT-15 colon = tested on: HCT-15 colon
OVCAR-5 ovarian = tested on: OVCAR-5 ovarian
MDA-MB-435 = tested on: MDA-MB-435
SK-MEL-2 melanoma = tested on: SK-MEL-2 melanoma
HS 578T breast = tested on: HS 578T breast
T-47D breast = tested on: T-47D breast
NCI-H460 lung = tested on: NCI-H460 lung
SK-OV-3 ovarian = tested on: SK-OV-3 ovarian
DU-145 prostate = tested on: DU-145 prostate
SF-295 CNS = tested on: SF-295 CNS
SN12C renal = tested on: SN12C renal

`CCOC(=O)N1CCN(C(=O)c2ccc(C(F)(F)F)nc2Nc2cc(Cl)ccc2C)CC1` gave a GI50 (HCC-2998 colon) of 11.6 µM, a TGI (HCC-2998 colon) of 30.1 µM and a GI50 (MDA-MB-231 breast) of 5.22 µM. For the same compound, the TGI (MDA-MB-231 breast) was 21.9 µM, the GI50 (COLO 205 colon) was 18.9 µM and the TGI (COLO 205 colon) was 51.6 µM. For the same compound, the GI50 (CCRF-CEM leukemia) was 18.9 µM, the TGI (CCRF-CEM leukemia) was > 100 µM and the GI50 (TK-10 renal) was 17.4 µM. For the same compound, the TGI (TK-10 renal) was 88.9 µM, the GI50 (NCI-H226 lung) was 20.5 µM and the TGI (NCI-H226 lung) was 68.6 µM. The GI50 (HOP-62 NSCLC) was 25.8 µM, the TGI (HOP-62 NSCLC) was > 100 µM and the GI50 (SF-268 CNS) was 74.8 µM. The TGI (SF-268 CNS) was > 100 µM, the GI50 (A549 NSCLC) was 14.8 µM and the TGI (A549 NSCLC) was > 100 µM. For the same compound, the GI50 (U251 CNS) was 27.1 µM, the TGI (U251 CNS) was > 100 µM and the GI50 (SNB-19 CNS) was > 100 µM. The TGI (SNB-19 CNS) was > 100 µM, the GI50 (EKVX NSCLC) was 23.2 µM and the TGI (EKVX NSCLC) was > 100 µM. It also gave a GI50 (HCT-116 colon) of 12.3 µM, a TGI (HCT-116 colon) of 30.1 µM and a GI50 (UACC-257 melanoma) of 27.2 µM. The TGI (UACC-257 melanoma) was > 100 µM, the GI50 (ACHN renal) was 13.9 µM and the TGI (ACHN renal) was 89.4 µM. The GI50 (NCI-H23 lung) was 14.1 µM, the TGI (NCI-H23 lung) was 74.5 µM and the GI50 (M14 melanoma) was 23.7 µM. For the same compound, the TGI (M14 melanoma) was > 100 µM, the GI50 (786-0 renal) was 41.1 µM and the TGI (786-0 renal) was > 100 µM. The GI50 (SF-539 CNS) was 33.7 µM, the TGI (SF-539 CNS) was > 100 µM and the GI50 (SW-620 colon) was 15.4 µM. It also gave a TGI (SW-620 colon) of 92.9 µM, a GI50 (HT29 colon) of 13.2 µM and a TGI (HT29 colon) of 34.8 µM. For the same compound, the GI50 (SR leukemia) was 7.74 µM, the TGI (SR leukemia) was 65.7 µM and the GI50 (MALME-3M melanoma) was 12 µM. The TGI (MALME-3M melanoma) was 41 µM, the GI50 (OVCAR-3 ovarian) was 8.85 µM and the TGI (OVCAR-3 ovarian) was 47.2 µM. The GI50 (NCI-H522 lung) was 4.43 µM, the TGI (NCI-H522 lung) was 27.4 µM and the GI50 (IGROV1 ovarian) was 1.38 µM. The TGI (IGROV1 ovarian) was 59.7 µM, the GI50 (RXF 393 renal) was 14 µM and the TGI (RXF 393 renal) was 65.2 µM. For the same compound, the GI50 (MCF7 breast) was 14.7 µM, the TGI (MCF7 breast) was 43 µM and the GI50 (UO-31 renal) was 7.82 µM. For the same compound, the TGI (UO-31 renal) was > 100 µM, the GI50 (MOLT-4 leukemia) was 6.63 µM and the TGI (MOLT-4 leukemia) was 64.8 µM. The GI50 (PC-3 prostate) was 7.71 µM, the TGI (PC-3 prostate) was > 100 µM and the GI50 (BT-549 breast) was 19.2 µM. For the same compound, the TGI (BT-549 breast) was 73.2 µM, the GI50 (UACC-62 melanoma) was 10 µM and the TGI (UACC-62 melanoma) was 25.6 µM. It also gave a GI50 (RPMI-8226 leukemia) of 11.4 µM, a TGI (RPMI-8226 leukemia) of 64.8 µM and a GI50 (K-562 leukemia) of 6.31 µM. The TGI (K-562 leukemia) was > 100 µM, the GI50 (OVCAR-8 ovarian) was 30.2 µM and the TGI (OVCAR-8 ovarian) was > 100 µM. For the same compound, the GI50 (OVCAR-4 ovarian) was 11.8 µM, the TGI (OVCAR-4 ovarian) was 55.1 µM and the GI50 (KM12 colon) was 11.2 µM. The TGI (KM12 colon) was 31.2 µM, the GI50 (LOX IMVI melanoma) was 19.7 µM and the TGI (LOX IMVI melanoma) was > 100 µM. It also gave a GI50 (HL-60(TB) leukemia) of 12.1 µM, a TGI (HL-60(TB) leukemia) of 38 µM and a GI50 (CAKI-1 renal) of 21.1 µM. For the same compound, the TGI (CAKI-1 renal) was 64.5 µM, the GI50 (NCI/ADR-RES ovarian) was 15.4 µM and the TGI (NCI/ADR-RES ovarian) was > 100 µM. The GI50 (SNB-75 CNS) was 1.41 µM, the TGI (SNB-75 CNS) was 24.1 µM and the GI50 (A498 renal) was 21.1 µM. The TGI (A498 renal) was 56.4 µM, the GI50 (HOP-92 NSCLC) was 10.2 µM and the TGI (HOP-92 NSCLC) was > 100 µM. The GI50 (SK-MEL-28 melanoma) was 26.1 µM, the TGI (SK-MEL-28 melanoma) was 96 µM and the GI50 (SK-MEL-5 melanoma) was 10.1 µM. For the same compound, the TGI (SK-MEL-5 melanoma) was 23.2 µM, the GI50 (HCT-15 colon) was 23.1 µM and the TGI (HCT-15 colon) was > 100 µM. For the same compound, the GI50 (OVCAR-5 ovarian) was 39.4 µM, the TGI (OVCAR-5 ovarian) was > 100 µM and the GI50 (MDA-MB-435) was 5.86 µM. For the same compound, the TGI (MDA-MB-435) was 26.7 µM, the GI50 (SK-MEL-2 melanoma) was 22.3 µM and the TGI (SK-MEL-2 melanoma) was 72.9 µM. The GI50 (HS 578T breast) was 23.9 µM, the TGI (HS 578T breast) was 91.2 µM and the GI50 (T-47D breast) was > 100 µM. For the same compound, the TGI (T-47D breast) was > 100 µM, the GI50 (NCI-H460 lung) was 16.2 µM and the TGI (NCI-H460 lung) was 33.6 µM. The GI50 (SK-OV-3 ovarian) was > 100 µM, the TGI (SK-OV-3 ovarian) was > 100 µM and the GI50 (DU-145 prostate) was 48.2 µM. The TGI (DU-145 prostate) was > 100 µM, the GI50 (SF-295 CNS) was 14.6 µM and the TGI (SF-295 CNS) was 65.3 µM. For the same compound, the GI50 (SN12C renal) was 36.8 µM and the TGI (SN12C renal) was > 100 µM.

— PubChem BioAssay (NCI)
